These are literature values, as cited in patent publication US12016850B2, “Modified release pharmaceutical formulations comprising deferiprone” (Chiesi Farmaceutici S.p.A., priority 2022, dated 2024).

SMILES strings stand for the structures.

One may read the half-life as how long it takes for the measured level to halve.

For this data set the following is noted: background statement, species not given.

With `Cc1c(O)c(=O)ccn1C` [Deferiprone, 3-hydroxy-1,2-dimethylpyridin-4-one], the half-life is 2 to 3 h.
